What was measured:
[1] = target: T1, PDPK1 (Homo sapiens, UniProt O15530); test: MALDI MS of intact PDPK1 incubated with compound; format: binding; design: purchased Millipore 14-452; conditions: for Number of Modifications on Whole Protein: PDPK1 whole protein, MS
T1 sequence (O15530 1-556): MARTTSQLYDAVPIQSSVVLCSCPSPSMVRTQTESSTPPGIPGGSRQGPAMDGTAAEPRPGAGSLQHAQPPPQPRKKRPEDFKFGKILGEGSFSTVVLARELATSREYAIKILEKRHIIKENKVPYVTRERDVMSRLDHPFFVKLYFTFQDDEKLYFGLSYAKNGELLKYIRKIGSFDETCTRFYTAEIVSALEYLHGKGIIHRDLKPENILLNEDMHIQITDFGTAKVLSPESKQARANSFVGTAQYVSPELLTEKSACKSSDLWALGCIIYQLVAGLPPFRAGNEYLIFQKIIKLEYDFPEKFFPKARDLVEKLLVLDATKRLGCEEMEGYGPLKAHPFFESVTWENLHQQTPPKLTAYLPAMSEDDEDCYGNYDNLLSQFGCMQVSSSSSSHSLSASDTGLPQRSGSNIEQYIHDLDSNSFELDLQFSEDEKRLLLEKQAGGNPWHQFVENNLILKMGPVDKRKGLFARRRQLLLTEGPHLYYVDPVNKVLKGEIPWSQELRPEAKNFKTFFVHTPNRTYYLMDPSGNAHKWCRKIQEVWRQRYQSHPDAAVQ
Method: (§1) Intact PDPK1 was incubated for 3 hr at a 10-fold excess of compound XI-27 to protein. 3 μL aliquots of the samples were diluted with 10 μL of 0.1% TFA prior to micro C4 Ziptipping directly onto the MALDI target plate using sinapinic acid as the desorption matrix (10 mg/mL in 0.1% TFA:Acetonitrile 50:50).
as §1, with “XI-21” for “XI-27”
For example, Table 7 lists non-limiting examples of compounds that modify PDPK1 whole protein, the number of modifications per protein and the lysines modified within the protein. […] Also, the lysine modified in PDPK-1 by XI-27, XI-26, XI-22, and XI-21 are not the same for each compound. Without wishing to be bound to any particular theory, the position of the warhead, as presented by the scaffold and tether to the lysines in the binding site, effects different results on the modification of the different lysines in the binding site of PDPK-1.

[2] = target: T1, PDPK1; test: PDK1-OMNIA kinase assay (ST28-Sox peptide); format: biochemical; design: purchased Invitrogen, BPS or SignalChem P3001 (Invitrogen), 40080 (BPS), P14-10H (SignalChem); conditions: PDPK1 enzyme pre-incubated 30 min at 25° C. with compound; [ATP]=5 μM; ST28-Sox peptide substrate; read-out: Inhibition/Modification Designation (IC50, PDK1-OMNIA)
Method: Briefly, a 10× stock of PDPK1 enzyme from Invitrogen (P3001) or BPS (40080) or SignalChem (P14-10H), 1.13×ATP (AS001A) and ST28-Sox peptide substrate (KNZ1281C) were prepared in 1× kinase reaction buffer consisting of 20 mM Tris, pH 7.5, 5 mM MgCl2, 1 mM EGTA, 5 mM β-glycerophosphate, 5% glycerol (10× stock, KB002A) and 0.2 mM DTT (DS001A). 5 μL of enzyme were pre-incubated in a Corning (#3574) 384-well, white, non-binding surface microtiter plate (Corning, N.Y.) for 30 min at 25° C. with a 0.5 μL volume of 50% DMSO and serially diluted compounds prepared in 50% DMSO. Kinase reactions were started with the addition of 45 […] of the ST28-Sox peptide substrate and monitored every 71 seconds for 30-60 minutes at λex360/λem485 in a Synergy4 plate reader from BioTek (Winooski, Vt.). At the conclusion of each assay, progress curves from each well were examined for linear reaction kinetics and fit statistics (R^2, 95% confidence interval, absolute sum of squares). Post-lag velocity (+10 minutes to 20+ minutes) from each reaction was estimated from the slope of a plot of relative fluorescence units vs time (minutes) and normalized to the no enzyme and no inhibitor control groups for % Inhibition. The resulting inhibition values were then plotted against inhibitor concentration to estimate IC50 from log [Inhibitor] vs Response, Variable Slope model in GraphPad Prism from GraphPad Software (San Diego, Calif.).
[Reagent] used in provisional protocol(s): Invitrogen—[PDPK1]=5-10 nM, [ATP]=5 μM and [ST28-Sox]=5 μM or 10 μM (ATP KMapp=4-6 μM); BPS—[PDPK1]=10-15 nM, [ATP]=5 μM and [ST28-Sox]=10 μM (ATP KMapp=3-5 μM); SignalChem—[PDPK1]=5-10 nM, [ATP]=5 μM and [ST28-Sox]=5 μM or 10 μM (ATP KMapp ND)

[3] = target: T2, p120γ (PI3Kγ) (Homo sapiens, UniProt P48736); test: HTRF assay, p120γ; format: biochemical; conditions: PI3Kγ; read-out: PI3Kγ HTRF IC50 Inhibition Designation
T2 construct: purchased BPS Bioscience 40625
T2 sequence (P48736 whole entry): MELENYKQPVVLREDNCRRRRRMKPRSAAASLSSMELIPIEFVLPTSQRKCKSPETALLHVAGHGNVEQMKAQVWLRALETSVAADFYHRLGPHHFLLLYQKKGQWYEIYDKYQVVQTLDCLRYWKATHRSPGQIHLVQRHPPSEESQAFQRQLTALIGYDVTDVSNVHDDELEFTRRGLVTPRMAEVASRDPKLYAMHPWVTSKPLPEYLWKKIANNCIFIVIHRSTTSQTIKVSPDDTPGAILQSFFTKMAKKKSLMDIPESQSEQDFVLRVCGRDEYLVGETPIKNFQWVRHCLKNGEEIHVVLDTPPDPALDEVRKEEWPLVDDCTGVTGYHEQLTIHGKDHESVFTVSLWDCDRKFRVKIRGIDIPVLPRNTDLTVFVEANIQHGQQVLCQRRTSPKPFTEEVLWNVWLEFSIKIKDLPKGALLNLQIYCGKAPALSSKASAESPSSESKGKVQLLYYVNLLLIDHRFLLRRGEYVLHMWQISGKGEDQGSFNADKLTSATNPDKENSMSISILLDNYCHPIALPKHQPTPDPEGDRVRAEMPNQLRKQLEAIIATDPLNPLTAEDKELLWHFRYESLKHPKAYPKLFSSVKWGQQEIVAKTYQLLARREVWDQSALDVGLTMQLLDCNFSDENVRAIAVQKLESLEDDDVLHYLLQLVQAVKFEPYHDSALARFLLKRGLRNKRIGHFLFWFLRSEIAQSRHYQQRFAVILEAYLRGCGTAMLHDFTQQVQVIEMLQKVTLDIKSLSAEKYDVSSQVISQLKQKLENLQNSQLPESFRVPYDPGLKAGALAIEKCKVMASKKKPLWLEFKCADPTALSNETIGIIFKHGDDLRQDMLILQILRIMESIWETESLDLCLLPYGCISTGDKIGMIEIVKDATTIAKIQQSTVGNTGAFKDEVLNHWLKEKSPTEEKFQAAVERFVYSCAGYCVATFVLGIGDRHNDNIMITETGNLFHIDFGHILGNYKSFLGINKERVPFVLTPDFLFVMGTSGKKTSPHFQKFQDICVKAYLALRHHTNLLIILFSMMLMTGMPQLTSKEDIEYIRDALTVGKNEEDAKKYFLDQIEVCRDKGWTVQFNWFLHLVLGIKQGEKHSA
How it was run: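 End-point competition-binding HTRF with 1-4 nM enzyme and 10 μM di-C8-PIP2, pre-incubated with compound 30 min at 25° C, then 50 μM ATP for 15-30 min at 25° C. HTRF ratio (665/620 nm) gave % inhibition; IC50 from variable-slope log-dose fit.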

[4] = system: HCT116; test: HCT116-WB assay; format: cell-based; conditions: Homo sapiens, HCT-116; read-out: HCT116-WB Inhibition Designation
[5] = target: T3, p110α/p85α (PI3Kα) (Homo sapiens, UniProt P42336); test: HTRF assay, p110α/p85α; format: biochemical; conditions: read-out: PI3Kα-HTRF-IC50 nM Inhibition Designation
T3 construct: purchased BPS Bioscience or Millipore 40620 (BPS Bioscience) or 14-602 (Millipore)
T3 sequence (P42336 whole entry): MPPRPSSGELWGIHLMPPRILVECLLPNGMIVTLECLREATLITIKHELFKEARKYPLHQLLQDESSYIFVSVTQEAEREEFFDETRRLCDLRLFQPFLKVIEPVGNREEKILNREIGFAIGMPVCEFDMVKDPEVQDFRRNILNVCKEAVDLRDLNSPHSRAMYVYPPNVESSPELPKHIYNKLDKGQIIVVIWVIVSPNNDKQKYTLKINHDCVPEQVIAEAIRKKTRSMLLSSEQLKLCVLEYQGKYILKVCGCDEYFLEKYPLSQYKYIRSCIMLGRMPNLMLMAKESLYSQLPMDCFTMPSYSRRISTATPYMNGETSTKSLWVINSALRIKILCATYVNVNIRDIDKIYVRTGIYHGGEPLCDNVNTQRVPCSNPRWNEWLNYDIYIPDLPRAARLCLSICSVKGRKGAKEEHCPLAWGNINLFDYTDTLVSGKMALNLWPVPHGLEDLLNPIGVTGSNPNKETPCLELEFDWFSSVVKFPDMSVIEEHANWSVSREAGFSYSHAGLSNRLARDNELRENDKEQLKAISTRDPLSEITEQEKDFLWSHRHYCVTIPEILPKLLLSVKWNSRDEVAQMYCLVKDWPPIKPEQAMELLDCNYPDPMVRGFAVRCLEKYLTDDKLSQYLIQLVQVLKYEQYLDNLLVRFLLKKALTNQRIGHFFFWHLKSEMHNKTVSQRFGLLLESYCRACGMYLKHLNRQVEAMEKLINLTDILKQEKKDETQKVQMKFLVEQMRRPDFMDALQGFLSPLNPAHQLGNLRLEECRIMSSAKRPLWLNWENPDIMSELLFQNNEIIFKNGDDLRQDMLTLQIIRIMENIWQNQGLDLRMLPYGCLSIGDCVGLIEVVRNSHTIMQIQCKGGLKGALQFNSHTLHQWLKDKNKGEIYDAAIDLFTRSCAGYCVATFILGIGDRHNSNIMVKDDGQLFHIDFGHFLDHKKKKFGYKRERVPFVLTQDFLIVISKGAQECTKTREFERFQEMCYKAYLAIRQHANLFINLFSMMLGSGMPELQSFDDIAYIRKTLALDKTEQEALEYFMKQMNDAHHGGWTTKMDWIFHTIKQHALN
T3 sequence (P27986 whole entry partner): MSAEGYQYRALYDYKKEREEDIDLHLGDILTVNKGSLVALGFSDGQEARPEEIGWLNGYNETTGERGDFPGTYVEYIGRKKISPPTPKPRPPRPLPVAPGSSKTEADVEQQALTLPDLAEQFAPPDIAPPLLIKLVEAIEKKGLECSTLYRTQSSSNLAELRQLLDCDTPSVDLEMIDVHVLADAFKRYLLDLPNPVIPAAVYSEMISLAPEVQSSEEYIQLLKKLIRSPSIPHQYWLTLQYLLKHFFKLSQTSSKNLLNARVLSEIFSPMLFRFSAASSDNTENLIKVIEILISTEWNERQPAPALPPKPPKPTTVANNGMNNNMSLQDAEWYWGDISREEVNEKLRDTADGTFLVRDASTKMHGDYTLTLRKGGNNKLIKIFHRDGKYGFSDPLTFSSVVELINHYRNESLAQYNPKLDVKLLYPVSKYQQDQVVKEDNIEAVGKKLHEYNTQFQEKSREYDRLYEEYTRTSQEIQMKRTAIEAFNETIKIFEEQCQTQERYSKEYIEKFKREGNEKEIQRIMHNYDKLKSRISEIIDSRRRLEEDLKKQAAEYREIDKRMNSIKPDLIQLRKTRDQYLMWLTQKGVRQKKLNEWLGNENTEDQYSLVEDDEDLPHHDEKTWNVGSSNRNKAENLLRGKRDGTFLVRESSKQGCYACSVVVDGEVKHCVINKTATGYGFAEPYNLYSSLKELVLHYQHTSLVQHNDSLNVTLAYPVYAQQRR
Method: HTRF Assay Protocol for Potency Assessment Against the Active Form of p110α/p85α:
The mechanics of the assay platform are best described by the vendor (Millipore, Billerica, Mass.) on their website at the following URL: http://www.millipore.com/coa/tech1/74jt4z.
Briefly, Stop solution (Stop A, #33-007 and Stop B, #33-009; 3:1 ratio) and Detection Mix (DMC, #33-015 with DMA, #33-011 and DMB, #33-013; 18:1:1 ratio) were prepared as recommended by the manufacturer ˜2 hrs prior to use. […] Lipid kinase reactions were started with the addition of 5 μL of ATP solution, mixed for 15 sec on a rotary plate shaker and incubated for 15-30 minutes at 25° C. Next, reactions were stopped with a 5 μL addition of Stop solution followed by a 5 μL volume of Detection Mix. […] At the conclusion of each assay, the HTRF ratio from fluorescence emission values for each well was calculated and % Inhibition determined from averaged controls wells. % Inhibition values for each compound re then plotted against inhibitor concentration to estimate IC50 from log [Inhibitor] vs Response, Variable Slope model in GraphPad Prism from GraphPad Software (San Diego, Calif.).

[6] = target: T4, recombinant human cIAP-1 (Homo sapiens, UniProt Q13490); test: Fluorescence polarization competition binding assay, cIAP-1; conditions: c-IAP-1, 3 h
T4 construct: purchased R&D Systems 818-IA
T4 sequence (Q13490 whole entry): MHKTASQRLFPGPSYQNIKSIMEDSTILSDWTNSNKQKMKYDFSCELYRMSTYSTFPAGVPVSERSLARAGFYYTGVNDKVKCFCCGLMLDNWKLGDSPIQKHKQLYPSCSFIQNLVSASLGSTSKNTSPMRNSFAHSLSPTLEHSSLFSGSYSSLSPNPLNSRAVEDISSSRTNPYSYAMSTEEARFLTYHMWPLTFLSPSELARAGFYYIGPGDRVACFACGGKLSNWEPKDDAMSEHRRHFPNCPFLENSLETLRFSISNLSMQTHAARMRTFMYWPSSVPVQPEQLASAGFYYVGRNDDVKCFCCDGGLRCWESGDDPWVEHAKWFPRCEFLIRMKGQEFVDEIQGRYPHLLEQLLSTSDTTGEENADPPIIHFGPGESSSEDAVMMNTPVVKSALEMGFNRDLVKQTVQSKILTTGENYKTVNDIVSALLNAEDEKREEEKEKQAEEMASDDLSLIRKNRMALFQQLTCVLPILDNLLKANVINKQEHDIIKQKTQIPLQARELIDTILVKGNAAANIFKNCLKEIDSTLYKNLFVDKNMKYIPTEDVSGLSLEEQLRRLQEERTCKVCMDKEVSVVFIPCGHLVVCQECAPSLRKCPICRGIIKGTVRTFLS
Method: (§2) Homogeneous, Fluorescence Polarization, Competition Binding Assay Protocol for Affinity Assessment of Compound Binding to XIAP, cIAP-1 and ML-IAPβ BIR3 Domains
(§3) 1× stocks of recombinant human XIAP; BIR3 domain (895-XB), recombinant human cIAP-1 (818-IA) or recombinant human ML-IAPβ (818-IA) from R&D Systems and Fluorescence Polarization (FP) assay tracer (Atto-647 tagged IAP inhibitor probe compound) were prepared in assay buffer consisting of 25 mM Tris-HCL, pH 7.5 (Sigma), 10 mM […] (Sigma), 1 mM DTT (Fluka) and 0.005% TritonX-100 (Pierce). While IAP protein and tracer equilibrated at ambient temp in the dark (30-60 min), 100× stocks of test compound were prepared in 50% DMSO:H2O, serially diluted and spotted (0.5 µL/well) in duplicate wells of a 384-well, flat bottom, polypropylene, black assay plate (Greiner #781209). […] Competition binding between test compounds and assay tracer was initiated by the addition of 50 µL/well of pre-equilibrated IAP protein and assay tracer. Displacement of the assay tracer was measured in a Synergy plate reader from BioTek (Winooski, Vt.) at λex620/λem680 through a 660 nm half-sized dicroich mirror and S/P polarizing filters every 30 min for 3 hr. (See Huang, X., Journal of Biomolecular Screening 8, 2003). The resulting compound dose response data were fit to a one-site binding Ki model in GraphPad Prism from GraphPad Software (San Diego, Calif.).

[7] = target: T5, recombinant human ML-IAPβ (Homo sapiens, UniProt Q96CA5); test: Fluorescence polarization competition binding assay, ML-IAPβ; conditions: ML-IAP, 2 h
T5 construct: purchased R&D Systems 818-IA
T5 sequence (Q96CA5 1-280 isoform Q96CA5-2): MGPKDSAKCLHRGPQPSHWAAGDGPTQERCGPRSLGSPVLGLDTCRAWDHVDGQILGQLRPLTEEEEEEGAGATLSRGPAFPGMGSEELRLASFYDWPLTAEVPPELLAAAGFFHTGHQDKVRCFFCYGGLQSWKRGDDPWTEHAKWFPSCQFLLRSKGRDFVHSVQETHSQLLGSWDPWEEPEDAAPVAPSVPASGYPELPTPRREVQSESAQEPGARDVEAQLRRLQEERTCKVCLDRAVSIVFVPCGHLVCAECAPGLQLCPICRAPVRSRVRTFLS
Method: as §2, §3

Compound	Number of Modifications on Whole Protein [1]	IC50 [2]	IC50 [3]	IC50 [4]	IC50 [5]	other results
C=CC(=O)Nc1ccc(Nc2ncc(Br)c(NCCCNC(=O)C(C)(C)C(N)=O)n2)cc1 [XI-39]	1	10 to 100 nM	–	–	–	–
CC(C)(C(N)=O)C(=O)NCCCNc1nc(Nc2cccc(NC(=O)CNC(=O)C3CSC(=O)C3)c2)ncc1Br (centres unmarked) [XI-26]	1	10 to 100 nM	–	–	–	–
CN(Cc1cc2nc(-c3cccc(O)c3)nc(N3CCOCC3)c2s1)C(=O)[C@@H]1CCC(=O)O1 [XXII-6]	–	–	100 to 1000 nM	10 to 100 nM	10 to 100 nM	–
[2H]C([2H])=C([2H])C(=O)Nc1cccc(CNC(=O)[C@@H]2CC[C@@H]3CCCC[C@H](NC(=O)[C@H](C)NC)C(=O)N32)c1 [VII-16]	–	–	–	–	–	Ki [6]: 100 to 1000 nM; Ki [7]: 100 to 1000 nM
C=CC(=O)N1CCN(CC#Cc2cc3nc(-c4cccc(O)c4)nc(N4CCOCC4)c3s2)CC1 [XXII-3]	–	–	100 to 1000 nM	100 to 1000 nM	–	–
CN(Cc1cc2nc(-c3cccc(O)c3)nc(N3CCOCC3)c2s1)C(=O)[C@H]1CCC(=O)O1 [XXII-7]	–	–	100 to 1000 nM	10 to 100 nM	100 to 1000 nM	–
CC1(C)Cc2nc(N3CCOc4ccc(-c5ccc(C(=O)N6C[C@@H]7C[C@H]6C(=O)O7)cc5)cc43)sc2C(=O)N1 [XXIII-8, (1S,4S)-5-(4-(4-(6,6-dimethyl-4-oxo-4,5,6,7-tetrahydrothiazolo[5,4-c]pyridin-2-yl)-3,4-dihydro-2H-benzo[b][1,4]oxazin-6-yl)benzoyl)-2-oxa-5-azabicyclo[2.2.1]heptan-3-one]	–	–	100 to 1000 nM	1000 to 10000 nM	100 to 1000 nM	–
CC(C)(C(N)=O)C(=O)NCCCNc1nc(Nc2cccc(NC(=O)C3CSC(=O)C3)c2)ncc1Br (centres unmarked) [XI-27]	1	< 10 nM	–	–	–	modification of PDPK1 ([1]; 3 hr, 10-fold excess): complete modification; mass shift of PDPK1 ([1]; 3 hr, 10-fold excess of compound to protein): 568 Da
CN[C@@H](C)C(=O)N[C@H]1CCCC[C@H]2CC[C@@H](C(=O)NCc3cccc(C(=O)N4CC5CCC4C(=O)O5)c3)N2C1=O (some centres unmarked) [VII-43]	–	–	–	–	–	Ki [6]: 1000 to 10000 nM; Ki [7]: > 10000 nM
